Drawing on the NIST ThermoML archive (doi:10.1021/je050006+), this text covers mass density and speed of sound for three compounds.

For this data set the following is noted: 101.33 kPa, Liquid.

A word on the mass density: it is mass per unit of volume. The speed of sound is the propagation velocity of pressure waves in the medium.

Numbers after ± are expanded uncertainties.

Turning to `CCO` [ethanol], the mass density (283.15 K) was determined as 797.94 ± 0.45 kg/m3, the mass density (298.15 K) turned out to be 785.12 ± 0.47 kg/m3 and the mass density (313.15 K) is 772.53 ± 0.49 kg/m3. In addition, the speed of sound runs as follows: (283.15 K) 1195.2 ± 3.2 m/s; (298.15 K) 1143.3 ± 3.1 m/s; (313.15 K) 1093.8 ± 3 m/s.
Turning to `CCCO` [propan-1-ol], the mass density is 811.48 ± 0.59 kg/m3 (283.15 K), 799.66 ± 0.6 kg/m3 (298.15 K) and 787.76 ± 0.61 kg/m3 (313.15 K). Besides, the speed of sound runs as follows: (283.15 K) 1257.9 ± 3.5 m/s; (298.15 K) 1206 ± 3.4 m/s; (313.15 K) 1155.1 ± 3.3 m/s.
As to `C=C1CCC2CC1C2(C)C` (stereo not drawn) [β-pinene], the mass density is, setting by setting: (283.15 K) 879.07 ± 0.55 kg/m3; (298.15 K) 866.97 ± 0.55 kg/m3; (313.15 K) 855.5 ± 0.56 kg/m3. In addition, the speed of sound is recorded as 1356.8 ± 3.7 m/s (283.15 K), 1298.7 ± 3.5 m/s (298.15 K) and 1232.8 ± 3.4 m/s (313.15 K).
